This note sets out measurements from patent US10908153B2, “Pseudomonas aeruginosa inhibitor compounds” (priority 2015, dated 2021).

The target in this assay is T1, PscE-PscG interaction (Pseudomonas aeruginosa, UniProt P95435+Q9I317).
T1 construct: made in house; host or cells: E. coli
In words: ELISA test of inhibition of the PscE-PscG interaction. It counts as binding. To be noted: for PscE-PscG at 50 μM: inhibition by new synthetic analogues at 50 μM, PscG 2.2 μM, PscE solution 3 μM; for inhibition at 50 µM: 4 h, read-out: PscE-PscG at 50 μM; for inhibitory effect compared with clioquinol: ELISA test, 50 μM, Table 2. On the procedure: 50 μL of PscG protein at 1 μM (for screening libraries) or 2.2 μM (for screening newly synthesized molecules) is incubated in a NUNC 96-well plate for 8 h at 4° C. The wells are washed three times with 200 μL of 1× PBS/0.1% Tween20®. The wells are treated overnight at 4° C. with 200 μL of a 5% milk solution in 1× PBS/0.1% Tween20®. The solution is then discarded, and the plate is drained dry.
The test is carried out as follows:
Negative control (lowest signal level): 100 μL of buffer ([…] Tris-HCl, 250 mM NaCl, pH 8.0);
Positive control (highest signal level): 50 μL of buffer and 50 μL of a test solution at 25 (library screening) or 3 μM (screening of analogue molecules) of the PscE protein;
Test of the inhibitors: 40 μL buffer, 50 μL of a solution at 25 μM (library screening) or 3 μM (screening of analogue molecules) of PscE protein and 10 μL of the solution containing the inhibitor to be tested.
The solutions are left for 4 h at room temperature.
The wells are washed three times with 200 μL of 1× PBS/0.1% Tween20®. The anti-PscE antibody diluted to 1:2,000 in 1× PBS/0.1% Tween20®, 50 μL, is added and the whole is left 2 h at room temperature. The wells are washed three times with 200 μL of 1× PBS/0.1% Tween20®. The HRP-conjugated anti-mouse antibody is diluted to 1:5,000 in 1× PBS/0.1% Tween20® and 50 μL is added and left for 2 h at room temperature. The wells are washed three times with 200 μL of 1× PBS/0.1% Tween20®.
The ELISA test is developed by adding 50 μL of TMB reagent followed by incubation for 15 minutes at room temperature in the dark. The reaction is stopped by adding 50 μL of 2N HCl. The plate is read at 450 nm.
(In an ELISA, binding on a coated surface is turned into a signal by an enzyme label.)

T1 sequence (Q9I317 whole entry): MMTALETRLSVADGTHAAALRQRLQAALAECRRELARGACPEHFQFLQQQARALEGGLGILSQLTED
T1 sequence (P95435 whole entry): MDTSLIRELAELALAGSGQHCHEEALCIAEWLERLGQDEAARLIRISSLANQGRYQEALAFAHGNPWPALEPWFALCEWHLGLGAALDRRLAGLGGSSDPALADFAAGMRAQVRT

Regarding `CC(=O)Oc1c(-c2cn(CCCCCCCCCCOCCCc3ccc[n+](CCCCCCOCCCc4cccnc4)c3)nn2)cc(Cl)c2cccnc12` [molecule 42, 3-(3-(10-(4-(8-acetoxy-5-chloroquinolin-7-yl)-1H-1,2,3-triazol-1-yl)decyloxy)propyl)-1-(6-(3-(pyridin-3-yl)propoxy)hexyl)pyridinium chloride], the “PscE-PscG at 50 μM” value is listed as “no inhibition”.
As for `CC(=O)Oc1c(-c2cn(CCCCCCCCOCCCc3ccc[n+](CCCCCCCCOCCCc4cccnc4)c3)nn2)cc(Cl)c2cccnc12` [molecule 43, 3-(3-(8-(4-(8-acetoxy-5-chloroquinolin-7-yl)-1H-1,2,3-triazol-1-yl)octyloxy)propyl)-1-(8-(3-(pyridin-3-yl)propoxy)octyl)pyridinium chloride], the inhibition at 50 µM was 29.5%.
Regarding `CC(=O)Oc1c(-c2cn(CCCCCCCCCCCCOCCCc3ccc[n+](CCCCOCCCc4cccnc4)c3)nn2)cc(Cl)c2cccnc12` [molecule 44, 3-(3-(12-(4-(8-acetoxy-5-chloroquinolin-7-yl)-1H-1,2,3-triazol-1-yl)dodecyloxy)propyl)-1-(4-(3-(pyridin-3-yl)propoxy)butyl)pyridinium chloride], the inhibition at 50 µM was determined as 33.4%.
With `CC(=O)Oc1c(-c2cn(CCCCCCOCCCc3ccc[n+](CCCCCCCCCCOCCCc4cccnc4)c3)nn2)cc(Cl)c2cccnc12` [molecule 45, 3-(3-(6-(4-(8-acetoxy-5-chloroquinolin-7-yl)-1H-1,2,3-triazol-1-yl)hexyloxy)propyl)-1-(10-(3-(pyridin-3-yl)propoxy)decyl)pyridinium chloride], the inhibition at 50 µM was 71.6% and the “inhibitory effect compared with clioquinol” value is reported as “superior to clioquinol”.
Take `CC(=O)Oc1c(-c2cn(CCCCCCOCCCc3ccc[n+](CCCCCCCCCCCCOCCCc4cccnc4)c3)nn2)cc(Cl)c2cccnc12` [molecule 46, 3-(3-(6-(4-(8-acetoxy-5-chloroquinolin-7-yl)-1H-1,2,3-triazol-1-yl)hexyloxy)propyl)-1-(12-(3-(pyridin-3-yl)propoxy)dodecyl)pyridinium chloride]: the “PscE-PscG at 50 μM” value is “no inhibition”.
The same measure, in the same setting: the result for `CC(=O)Oc1c(-c2cn(CCCCCCCCOCCCc3ccc[n+](CCCCCCCCCCOCCCc4cccnc4)c3)nn2)cc(Cl)c2cccnc12` [molecule 47, 3-(3-(8-(4-(8-acetoxy-5-chloroquinolin-7-yl)-1H-1,2,3-triazol-1-yl)octyloxy)propyl)-1-(10-(3-(pyridin-3-yl)propoxy)decyl)pyridinium chloride] reads “no inhibition”.
With `CC(=O)Oc1c(-c2cn(CCCCCCCCCCOCCCc3ccc[n+](CCCCCCCCCCOCCCc4cccnc4)c3)nn2)cc(Cl)c2cccnc12` [molecule 48, 3-(3-(10-(4-(8-acetoxy-5-chloroquinolin-7-yl)-1H-1,2,3-triazol-1-yl)decyloxy)propyl)-1-(10-(3-(pyridin-3-yl)propoxy)decyl)pyridinium chloride], the inhibition at 50 µM was found to be 72.3% and the “inhibitory effect compared with clioquinol” value was “superior to clioquinol”.
Consider `CC(=O)Oc1c(-c2cn(CCCCCCCCCCCCOCCCc3ccc[n+](CCCCCCCCOCCCc4cccnc4)c3)nn2)cc(Cl)c2cccnc12` [molecule 49, 3-(3-(12-(4-(8-acetoxy-5-chloroquinolin-7-yl)-1H-1,2,3-triazol-1-yl)dodecyloxy)propyl)-1-(8-(3-(pyridin-3-yl)propoxy)octyl)pyridinium chloride], for which the inhibition at 50 µM turned out to be 69.8% and the “inhibitory effect compared with clioquinol” value was “superior to clioquinol”.
`CC(=O)Oc1c(-c2cn(CCCCCCCCCCOCCCc3ccc[n+](CCCCCCCCCCCCOCCCc4cccnc4)c3)nn2)cc(Cl)c2cccnc12` [molecule 50, 3-(3-(10-(4-(8-acetoxy-5-chloroquinolin-7-yl)-1H-1,2,3-triazol-1-yl)decyloxy)propyl)-1-(12-(3-(pyridin-3-yl)propoxy)dodecyl)pyridinium chloride]: the inhibition at 50 µM is 18.9%.
Consider `CC(=O)Oc1c(-c2cn(CCCCCCCCCCCCOCCCc3ccc[n+](CCCCCCCCCCOCCCc4cccnc4)c3)nn2)cc(Cl)c2cccnc12` [molecule 51, 3-(3-(12-(4-(8-acetoxy-5-chloroquinolin-7-yl)-1H-1,2,3-triazol-1-yl)dodecyloxy)propyl)-1-(10-(3-(pyridin-3-yl)propoxy)decyl)pyridinium chloride], for which the inhibition at 50 µM turned out to be 28.9%.
As to `CC(=O)Oc1c(-c2cn(CCCCCCCCCCCCOCCCc3ccc[n+](CCCCCCCCCCCCOCCCc4cccnc4)c3)nn2)cc(Cl)c2cccnc12` [molecule 52, 3-(3-(12-(4-(8-acetoxy-5-chloroquinolin-7-yl)-1H-1,2,3-triazol-1-yl)dodecyloxy)propyl)-1-(12-(3-(pyridin-3-yl)propoxy)dodecyl)pyridinium chloride], the inhibition at 50 µM is 3.4%.
